Assay results published in patent US20060251702A1, “Implantable materials and methods for inhibiting tissue adhesion formation” (Cook Biotech Incorporated, priority 2005, published 2006).
Values joined by “and” are separate entries in the source; they are usually repeats but may differ in a detail not shown here. Identical values can stand only once. Like-named read-outs stand apart in the source and are kept apart here.

Tested on: post-surgical adhesions on the traumatized cecal surface
Type: in vivo
Conditions: score of one rat, 21 days
Procedure: The samples were then removed from solution, frozen at −80° C. overnight, relyophilized, and sterilized with ethylene oxide.
Forty-nine 250-300 gram Sprague-Dawley rats were anesthetized with an IM dose of ketamine and xylazine and prepared for aseptic abdominal surgery. […] The adjacent wall of the peritoneal cavity was mildly abraded with the same nylon brush and the cecum was either placed back into the abdominal cavity, covered with biomaterial, which was anchored to the abdominal cavity by suturing it to mesenchymal fat, or injected with a solution and placed back into the abdominal cavity.
Following cecal abrasion, groups of rats received one of the following 8 treatments: • Treatment 1: (Control) No biomaterials were implanted following cecal injury. […] Care was taken to avoid perforating the bowel N=6 rats. • Treatment 3: (PPM) a piece of polypropylene mesh (Bard) was placed over the abraded surface and secured with non-absorbable nylon suture. […] N=6 rats. • Treatment 8: […] DMSO was delivered to the peritoneal cavity prior to closure. N=6 rats.
Following placement of the cecum back into the abdominal cavity, the abdominal wall was closed with 4-0 silk and the skin closed with surgical staples.

[1] = IP high dose: 2.0 mg nimesulide in 1.0 mL DMSO to the peritoneal cavity
[2] = IP low dose: 0.5 mg nimesulide in 1.0 mL DMSO to the peritoneal cavity

CS(=O)(=O)Nc1ccc([N+](=O)[O-])cc1Oc1ccccc1 [nimesulide]
Extent (of adhesions, score) [1]: 1 (1=adhesions on 25% of the traumatized cecal surface) (3×) and 0 | Tenacity (of adhesions, score) [1]: 2 (2×) and 1 and 0 | Extent (of adhesions, score) [2]: 2 (2=adhesions on 50% of the traumatized cecal surface) | Tenacity (of adhesions, score) [2]: 2
